Test results reported in patent publication US20110269786A1, “TREATMENT OF MAJOR ADVERSE CARDIAC EVENTS AND ACUTE CORONARY SYNDROME IN DIABETIC PATIENTS USING SECRETORY PHOSPHOLIPASE A2 (SPLA2) INHIBITOR OR SPLA2 INHIBITOR COMBINATION THERAPIES” (priority 2010, published 2011).

Experiments:
[1] = 80 mg atorvastatin; subjects that had recently experienced an ACS event; cited from earlier work
[2] = Clinical trial in post-ACS subjects: MACE occurrence in diabetic subpopulation; settings: cumulative at 16 weeks
Protocol: 625 adult (18 years of age or older) human subjects who had recently experienced an index ACS event (UA, NSTEMI, or STEMI) were randomized to receive placebo or A-002 at 500 mg once daily via oral administration in a double-blinded manner. A-002 was delivered in the form of two 250 mg tablets. In addition, all subjects received atorvastatin at 80 mg once daily via oral administration of a single tablet.
Subjects were excluded if they were receiving statin therapy at maximum recommended or tolerated dosage (i.e., 40-80 mg QD for atorvastatin, fluvastatin, lovastatin, pravastatin, or simvastatin, or 20-40 mg QD rosuvastatin) at the time of the index ACS event. During the trial, subjects were prevented from using any lipid-lowering therapy other than 80 mg atorvastatin and/or A-002.
For purposes of this study, MACEs included all-cause mortality, non-fatal MI, documented UA requiring urgent hospitalization, revascularization occurring 60 days or more after the initial index ACS event, and non-fatal stroke. Subjects were evaluated at various timepoints after randomization and at study completion. Each evaluation included measurement of serum LDL levels and recordation of any MACEs or less severe adverse events occurring since the previous evaluation. In addition, certain evaluation periods included measurement of one or more of hs-CRP, sPLA2, IL-6, and/or other biomarker levels, vital signs, weight, and/or waist circumference. […] This final evaluation included at least a complete physical examination, a 12-lead ECG reading, measurement of LDL, hs-CRP, sPLA2, and IL-6 levels, and recordation of any MACEs during the study period.

[3] = Clinical trial in post-ACS subjects: MACE occurrence in ITT population; type: in vivo, human; settings: at 16 weeks
Protocol: A-002 was delivered in the form of two 250 mg tablets. In addition, all subjects received atorvastatin at 80 mg once daily via oral administration of a single tablet.
Subjects were randomized within 96 hours of hospital admission for an index ACS event, or within 96 hours of index ACS event diagnosis if already hospitalized. Prior to randomization, subjects were screened for pertinent medical history, and baseline levels of LDL and hs-CRP were measured. Baseline sPLA2 levels were also measured in a random subset of subjects. Percutaneous revascularization, if required or planned for a particular subject, was performed prior to randomization.
Subjects were excluded if they were receiving statin therapy at maximum recommended or tolerated dosage (i.e., 40-80 mg QD for atorvastatin, fluvastatin, lovastatin, pravastatin, or simvastatin, or 20-40 mg QD rosuvastatin) at the time of the index ACS event. […]
For purposes of this study, MACEs included all-cause mortality, non-fatal MI, documented UA requiring urgent hospitalization, revascularization occurring 60 days or more after the initial index ACS event, and non-fatal stroke. […] This final evaluation included at least a complete physical examination, a 12-lead ECG reading, measurement of LDL, hs-CRP, sPLA2, and IL-6 levels, and recordation of any MACEs during the study period.

[4] = cited from earlier work
[5] = in vivo; cited from earlier work

| Compound | absolute reduction in death, non-fatal MI, cardiac arrest with resuscitation, or worsening symptomatic myocardial ischemia [1] | relative reduction in death, non-fatal MI, cardiac arrest with resuscitation, or worsening symptomatic myocardial ischemia [1] | Death, % of subjects [2] | Death, number of subjects [2] | MI, % of subjects [2] | MI, number of subjects [2] | Revascularization ≧ 60 days, % of subjects [2] | Revascularization ≧ 60 days, number of subjects [2] | Stroke, % of subjects [2] | Stroke, number of subjects [2] | Total MACEs, % of subjects [2] | UA requiring hospitalization, % of subjects [2] | UA requiring hospitalization, number of subjects [2] | % of subjects who experienced a MACE [3] | effect on total cholesterol, LDL-C, total LDL-C particle, and small LDL-C particle levels ([4]; once- or twice-daily administration, stable CVD population, diabetic and high baseline LDL-C subpopulations) | effect on levels of inflammatory markers such as hs-CRP and sPLA2 ([4]; stable populations) | absorption and conversion to active molecule [5] | terminal half-life (t1/2) [5] |
| --- | --- | --- | --- | --- | --- | --- | --- | --- | --- | --- | --- | --- | --- | --- | --- | --- | --- | --- |
| CC(C)c1c(C(=O)Nc2ccccc2)c(-c2ccccc2)c(-c2ccc(F)cc2)n1CC[C@@H](O)C[C@@H](O)CC(=O)O [Placebo (atorvastatin only), atorvastatin] | 2.6% | 16% | 3.4% | 3 | 0.0% | 0 | 0.0% | 0 | 0.0% | 0 | 6.9% | 3.4% | 3 | 6.1% |  |  |  |  |
| CCc1c(C(=O)C(N)=O)c2c(OCC(=O)OC)cccc2n1Cc1ccccc1 [A-002, [[3-(2-Amino-1,2-dioxoethyl)-2-ethyl-1-(phenylmethyl)-1H-indol-4-yl]oxy]acetic acid methyl ester] |  |  |  |  |  |  |  |  |  |  |  |  |  |  | decreases | decreases | rapidly absorbed and hydrolyzed to the active A-001 molecule | approximately ten |
